Patent US10336761B2, “TGFβ receptor antagonist” (BRISTOL-MYERS SQUIBB COMPANY, priority 2015, dated 2019)

Target: HIS-TGFβR1 T204D (Homo sapiens (Human), UniProt P36897, T204D)
Test: HTRF probe-displacement assay, HIS-TGFβR1 T204D
Type: binding
Conditions: 1 hour at room temperature

HIS-TGFβR1 T204D, sequence (P36897 34-503 T204D): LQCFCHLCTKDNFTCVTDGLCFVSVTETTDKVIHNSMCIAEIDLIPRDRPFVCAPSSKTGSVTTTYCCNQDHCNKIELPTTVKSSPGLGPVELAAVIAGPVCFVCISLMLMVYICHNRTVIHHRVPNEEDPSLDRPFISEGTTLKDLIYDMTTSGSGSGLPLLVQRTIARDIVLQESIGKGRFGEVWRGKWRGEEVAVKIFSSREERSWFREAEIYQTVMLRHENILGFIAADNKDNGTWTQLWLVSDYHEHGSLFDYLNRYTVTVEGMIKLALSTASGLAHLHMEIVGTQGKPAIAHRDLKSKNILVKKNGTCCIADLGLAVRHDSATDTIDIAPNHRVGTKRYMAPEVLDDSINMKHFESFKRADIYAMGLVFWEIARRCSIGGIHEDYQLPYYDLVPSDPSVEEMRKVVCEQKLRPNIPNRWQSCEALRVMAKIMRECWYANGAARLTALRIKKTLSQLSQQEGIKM

SMILES | IC50 [nM]
NC(=O)c1cnccc1Nc1nc(-c2ccc(F)c(C(F)F)n2)nn2cccc12 [Example 224, 4-({2-[6-(difluoromethyl)-5-fluoropyridin-2-yl]pyrrolo[2,1-f][1,2,4]triazin-4-yl}amino)pyridine-3-carboxamide] | 1.4
CCNC(=O)Nc1cc2c(Nc3ccncc3F)nc(-c3cccc(OC)n3)nn2c1 [Example 72, 3-ethyl-1-{4-[(3-fluoropyridin-4-yl)amino]-2-(6-methoxypyridin-2-yl)pyrrolo[2,1-f][1,2,4]triazin-6-yl}urea] | 370
Fc1cnccc1Nc1nc(-c2ccccn2)nn2ccc(CNCCN3CCNCC3)c12 [Example 269, 3-fluoro-N-[5-({[2-(piperazin-1-yl)ethyl]amino}methyl)-2-(pyridin-2-yl)pyrrolo[2,1-f][1,2,4]triazin-4-yl]pyridin-4-amine] | 4.2
COc1cccc(-c2nc(NCc3ccncc3)c3cccn3n2)n1 [Example 31, 2-(6-methoxypyridin-2-yl)-N-(pyridin-4-ylmethyl)pyrrolo[2,1-f][1,2,4]triazin-4-amine] | 810
Cc1cccc(-c2nc(Nc3ccncn3)c3cccn3n2)n1 [Example 64, N-[2-(6-methylpyridin-2-yl)pyrrolo[2,1-f][1,2,4]triazin-4-yl]pyrimidin-4-amine] | 2.2
Cc1nc(-c2nc(Nc3ccncc3C(=O)NCCN3CCCCC3)c3cccn3n2)ccc1F [Example 141, 4-{[2-(5-fluoro-6-methylpyridin-2-yl)pyrrolo[2,1-f][1,2,4]triazin-4-yl]amino}-N-[2-(piperidin-1-yl)ethyl]pyridine-3-carboxamide] | 5
CC(=O)Nc1cc(Nc2nc(-c3ccc(F)cn3)nn3cccc23)ccn1 [Example 227, N-(4-{[2-(5-fluoropyridin-2-yl)pyrrolo[2,1-f][1,2,4]triazin-4-yl]amino}pyridin-2-yl)acetamide] | 3.6
Cc1cccc(-c2nc(Nc3ccncc3C(=O)NC3CCOC3)c3cccn3n2)n1 (centres unmarked) [Example 161, 4-{[2-(6-methylpyridin-2-yl)pyrrolo[2,1-f][1,2,4]triazin-4-yl]amino}-N-(oxolan-3-yl)pyridine-3-carboxamide] | 28
CCOC(=O)CNC(=O)c1cnccc1Nc1nc(-c2cccc(C(F)F)n2)nn2cccc12 [Example 190, Ethyl 2-{[4-({2-[6-(difluoromethyl)pyridin-2-yl]pyrrolo[2,1-f][1,2,4]triazin-4-yl}amino)pyridin-3-yl]formamido}acetate] | 22
CC(=O)Nc1cc(Nc2nc(-c3ccc(C(F)(F)F)cn3)nn3cccc23)ccn1 [Example 332, N-[4-({2-[5-(trifluoromethyl)pyridin-2-yl]pyrrolo[2,1-f][1,2,4]triazin-4-yl}amino)pyridin-2-yl]acetamide] | 47
CC(O)c1cccc(-c2nc(Nc3ccncc3F)c3cccn3n2)n1 (centres unmarked) [Example 32, 1-(6-{4-[(3-fluoropyridin-4-yl)amino]pyrrolo[2,1-f][1,2,4]triazin-2-yl}pyridin-2-yl)ethan-1-ol] | 70
Cc1ccc(F)c(-c2nc(Nc3ccncc3F)c3cccn3n2)n1 [Example 261, 3-fluoro-N-[2-(3-fluoro-6-methylpyridin-2-yl)pyrrolo[2,1-f][1,2,4]triazin-4-yl]pyridin-4-amine] | < 0.76
Fc1cnccc1Nc1nc(-c2ccccn2)nn2ccc(CNCC3CCNCC3)c12 [Example 238, 3-fluoro-N-(5-{[(piperidin-4-ylmethyl)amino]methyl}-2-(pyridin-2-yl)pyrrolo[2,1-f][1,2,4]triazin-4-yl)pyridin-4-amine] | 2.9
CC(O)CCNCc1ccn2nc(-c3ccccn3)nc(Nc3ccncc3F)c12 (centres unmarked) [Example 274, 4-[({4-[(3-fluoropyridin-4-yl)amino]-2-(pyridin-2-yl)pyrrolo[2,1-f][1,2,4]triazin-5-yl}methyl)amino]butan-2-ol] | 0.52
Cc1cccc(-c2nc(Nc3ccncc3C(=O)NCCN3CCS(=O)(=O)CC3)c3cccn3n2)n1 [Example 153, N-[2-(1,1-dioxo-1,4-thiomorpholin-4-yl)ethyl]-4-{[2-(6-methylpyridin-2-yl)pyrrolo[2,1-f][1,2,4]triazin-4-yl]amino}pyridine-3-carboxamide] | 22
CNC(=O)c1cc2c(Nc3ccncc3)nc(-c3cccc(C)n3)nn2c1 [Example 220, N-methyl-2-(6-methylpyridin-2-yl)-4-[(pyridin-4-yl)amino]pyrrolo[2,1-f][1,2,4]triazine-6-carboxamide] | 11
COc1cccc(-c2nc(Nc3ccncc3F)c3cc(NC(=O)CN)cn3n2)n1 [Example 109, 2-amino-N-{4-[(3-fluoropyridin-4-yl)amino]-2-(6-methoxypyridin-2-yl)pyrrolo[2,1-f][1,2,4]triazin-6-yl}acetamide] | 1600
COc1cccc(-c2nc(Nc3ccncc3F)c3c(CCN4CCC(N)CC4)ccn3n2)n1 [Example 114, N-{5-[2-(4-aminopiperidin-1-yl)ethyl]-2-(6-methoxypyridin-2-yl)pyrrolo[2,1-f][1,2,4]triazin-4-yl}-3-fluoropyridin-4-amine] | 260

SMILES | IC50 [nM]
CC(C)(O)CNCc1ccn2nc(-c3ccc(F)cn3)nc(Nc3ccncc3F)c12 [Example 235, 1-({[2-(5-fluoropyridin-2-yl)-4-[(3-fluoropyridin-4-yl)amino]pyrrolo[2,1-f][1,2,4]triazin-5-yl]methyl}amino)-2-methylpropan-2-ol] | < 0.25
OCCN1CCN(Cc2ccn3nc(-c4cccc(C(F)F)n4)nc(Nc4ccncc4F)c23)CC1 [Example 253, 2-[4-({2-[6-(difluoromethyl)pyridin-2-yl]-4-[(3-fluoropyridin-4-yl)amino]pyrrolo[2,1-f][1,2,4]triazin-5-yl}methyl)piperazin-1-yl]ethan-1-ol] | 1.2
O=C(c1cnccc1Nc1nc(-c2cccc(C(F)F)n2)nn2cccc12)N1CCC1 [Example 189, 3-(azetidine-1-carbonyl)-N-{2-[6-(difluoromethyl)pyridin-2-yl]pyrrolo[2,1-f][1,2,4]triazin-4-yl}pyridin-4-amine] | 4.3
COc1cccc(-c2nc(Nc3ccncc3F)c3c(CCN4CCOCC4)ccn3n2)n1 [Example 113, 3-fluoro-N-[2-(6-methoxypyridin-2-yl)-5-[2-(morpholin-4-yl)ethyl]pyrrolo[2,1-f][1,2,4]triazin-4-yl]pyridin-4-amine] | 120
O=C(CCN1CC(F)(F)C1)Nc1cc(Nc2nc(-c3cccc(C(F)(F)F)n3)nn3cccc23)ccn1 [Example 341, 3-(3,3-difluoroazetidin-1-yl)-N-[4-({2-[6-(trifluoromethyl)pyridin-2-yl]pyrrolo[2,1-f][1,2,4]triazin-4-yl}amino)pyridin-2-yl]propanamide] | 2.7
O=C(CN1CCOCC1)Nc1cc(Nc2nc(-c3cccc(C(F)(F)F)n3)nn3cccc23)ccn1 [Example 331, 2-(morpholin-4-yl)-N-[4-({2-[6-(trifluoromethyl)pyridin-2-yl]pyrrolo[2,1-f][1,2,4]triazin-4-yl}amino)pyridin-2-yl]acetamide] | 2.6
COc1cccc(-c2nc(Nc3ccnc(NC(C)=O)c3)c3cccn3n2)n1 [Example 97, N-(4-{[2-(6-methoxypyridin-2-yl)pyrrolo[2,1-f][1,2,4]triazin-4-yl]amino}pyridin-2-yl)acetamide] | 2.9
Fc1c(Nc2nc(-c3cccc(C(F)F)n3)nn3cccc23)ccnc1Cl [Example 7, 2-chloro-N-{2-[6-(difluoromethyl)pyridin-2-yl]pyrrolo[2,1-f][1,2,4]triazin-4-yl}-3-fluoropyridin-4-amine] | 88
CCC[C@@H](CO)NCc1ccn2nc(-c3ccccn3)nc(Nc3ccncc3F)c12 [Example 273, (2S)-2-[({4-[(3-fluoropyridin-4-yl)amino]-2-(pyridin-2-yl)pyrrolo[2,1-f][1,2,4]triazin-5-yl}methyl)amino]pentan-1-ol] | 1.6
CCN(CC)CCNC(=O)c1cnccc1Nc1nc(-c2ccccn2)nn2cccc12 [Example 143, N-[2-(diethylamino)ethyl]-4-{[2-(pyridin-2-yl)pyrrolo[2,1-f][1,2,4]triazin-4-yl]amino}pyridine-3-carboxamide] | 19
CC(C)(C)OCCNC(=O)c1cnccc1Nc1nc(-c2cccc(C(F)F)n2)nn2cccc12 [Example 173, N-[2-(tert-butoxy)ethyl]-4-({2-[6-(difluoromethyl)pyridin-2-yl]pyrrolo[2,1-f][1,2,4]triazin-4-yl}amino)pyridine-3-carboxamide] | 48
COc1cccc(-c2nc(Nc3ccncc3F)c3c(C(O)CO)ccn3n2)n1 (centres unmarked) [Example 28, 1-{4-[(3-fluoropyridin-4-yl)amino]-2-(6-methoxypyridin-2-yl)pyrrolo[2,1-f][1,2,4]triazin-5-yl}ethane-1,2-diol] | 16
C[C@@H](NCc1ccn2nc(-c3ccccn3)nc(Nc3ccncc3F)c12)C(C)(C)C [Example 300, N-[5-({[(2R)-3,3-dimethylbutan-2-yl]amino}methyl)-2-(pyridin-2-yl)pyrrolo[2,1-f][1,2,4]triazin-4-yl]-3-fluoropyridin-4-amine] | 3.3
O=C(Nc1cc(Nc2nc(-c3cccc(C(F)(F)F)n3)nn3cccc23)ccn1)C1CC1 [Example 335, N-[4-({2-[6-(trifluoromethyl)pyridin-2-yl]pyrrolo[2,1-f][1,2,4]triazin-4-yl}amino)pyridin-2-yl]cyclopropanecarboxamide] | 0.37
O=C(CN1CC[C@@H](O)C1)Nc1cc(Nc2nc(-c3cccc(C(F)(F)F)n3)nn3cccc23)ccn1 [Example 327, 2-[(3R)-3-hydroxypyrrolidin-1-yl]-N-[4-({2-[6-(trifluoromethyl)pyridin-2-yl]pyrrolo[2,1-f][1,2,4]triazin-4-yl}amino)pyridin-2-yl]acetamide] | 0.3
CN1CCN(Cc2ccn3nc(-c4cccc(C(F)(F)F)n4)nc(Nc4ccncc4F)c23)CC1 [Example 26, 3-fluoro-N-{5-[(4-methylpiperazin-1-yl)methyl]-2-[6-(trifluoromethyl)pyridin-2-yl]pyrrolo[2,1-f][1,2,4]triazin-4-yl}pyridin-4-amine] | 32
Cc1cncc(-c2nc(Nc3ccncc3Cl)c3cccn3n2)n1 [Example 6, 3-chloro-N-[2-(6-methylpyrazin-2-yl)pyrrolo[2,1-f][1,2,4]triazin-4-yl]pyridin-4-amine] | 68
